The target of one data set is T1, human FXR (Homo sapiens, UniProt Q96RI1).
T1 construct: expressed in transfected cells; host or cells: HeLa
T1 sequence (Q96RI1 1-486): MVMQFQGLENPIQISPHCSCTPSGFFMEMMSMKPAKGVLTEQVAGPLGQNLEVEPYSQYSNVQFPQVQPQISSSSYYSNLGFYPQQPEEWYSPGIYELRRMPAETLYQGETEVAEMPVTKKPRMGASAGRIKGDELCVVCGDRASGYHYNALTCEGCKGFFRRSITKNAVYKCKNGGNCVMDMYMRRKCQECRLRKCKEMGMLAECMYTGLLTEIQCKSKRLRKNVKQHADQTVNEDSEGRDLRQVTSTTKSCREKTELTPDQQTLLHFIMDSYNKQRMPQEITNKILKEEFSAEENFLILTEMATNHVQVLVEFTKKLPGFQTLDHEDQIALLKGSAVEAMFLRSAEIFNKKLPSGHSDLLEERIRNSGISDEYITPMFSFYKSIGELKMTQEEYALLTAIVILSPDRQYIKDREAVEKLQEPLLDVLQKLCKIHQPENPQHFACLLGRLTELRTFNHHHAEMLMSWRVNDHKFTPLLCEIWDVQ
T1 sequence (P19793 1-462 partner): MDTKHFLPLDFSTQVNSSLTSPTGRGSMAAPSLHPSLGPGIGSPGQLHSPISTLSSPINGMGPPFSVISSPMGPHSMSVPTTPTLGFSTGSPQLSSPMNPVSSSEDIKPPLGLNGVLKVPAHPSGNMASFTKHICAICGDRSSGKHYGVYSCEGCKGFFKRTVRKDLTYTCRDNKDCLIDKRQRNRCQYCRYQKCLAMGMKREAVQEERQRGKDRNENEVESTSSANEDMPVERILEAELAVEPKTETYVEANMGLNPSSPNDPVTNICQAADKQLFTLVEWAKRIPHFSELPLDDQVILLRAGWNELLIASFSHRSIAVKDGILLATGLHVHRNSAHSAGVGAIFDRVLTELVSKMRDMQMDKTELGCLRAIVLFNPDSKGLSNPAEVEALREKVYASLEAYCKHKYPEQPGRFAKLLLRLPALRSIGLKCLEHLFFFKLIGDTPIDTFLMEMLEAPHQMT
Nature of the data set: Full-length FXR transactivation (reporter gene) assay in HeLa cells. As to conditions: for Emax: HeLa; for EC50: read-out: hFXR: EC50; for FXR modulatory potency in words: SAR discussion. In kind it is cell-based. Background: In a reporter assay the amount or activity of a reporter protein is the signal.

The next data set deals with c-Kit. The data set can be described thus: Kinase inhibition assay (radiometric or HTRF). In kind it is biochemical. Background: TR-FRET usually uses a lanthanide donor and a delayed reading to cut background.
Another data set deals with TAK1. Nature of the data set: Kinase inhibition assay (radiometric or HTRF). In kind it is biochemical. To be noted: 20 µM.
The next data set concerns T2, TGR5.
T2 construct: Eurofins (Brussels, Belgium)
The data set can be described thus: TGR5 assay (Eurofins). To be noted: 1 and 10 µM. In kind it is cell-based.

For the next data set, the system named is AMPKα1. The data set can be described thus: Kinase inhibition assay (radiometric or HTRF). In kind it is biochemical. As to conditions: 20 µM.
A short description of data set [1]: Metabolism assay (liver microsomes). To be noted: rat liver microsomes, 10 μM. In kind it is in vitro ADME, Sprague−Dawley rats. The method, then: (§1) In vitro biological evaluation […]
MgCl2). After 5 min, the reaction was started by the addition of 13 μL of microsome mix from the liver of Sprague−Dawley rats (Invitrogen; 20 mg protein/mL in 0.1 M phosphate buffer) in a shaking water bath at 37 °C.
The reaction was stopped by addition of 250 μL of ice-cold methanol at 0, 15, 30 and 60 min. The samples were diluted with 250 μL of DMSO and centrifuged at 10000 g for 5 min at 4 °C. The supernatants were analyzed and test compound was quantified by HPLC: mobile phase: MeOH 83%/H2O 17%/formic acid 0.1%; flow-rate:
1 mL/min; stationary phase: MultoHigh Phenyl phase, 5 μm, 250 × 4, precolumn, phenyl, 5 μm, 20 × 4; detection wavelength: 330 and 254 nm; injection volume: 50 μL. Control samples were performed to check the stability of 4 or 16 in the reaction mixture: first control was without NADPH, which is needed for the enzymatic activity of the microsomes, second control was with inactivated microsomes (incubated for 20 min at 90 °C), third control was […]
quantified by an external calibration curve, where data are expressed as means ± SEM of single determinations […]
obtained in three independent experiments. […]
as mean percent of remaining compound ± SEM; n=3): 4: 0 min: 100 ± 0%, 15 min: 86 ± 3%, 30 min: 74 ± 1%,
On the technique in general: Microsomes from liver hold many membrane-bound enzymes, among them those of drug oxidation.

A further data set has as its system PKA. Details: method as in doi:10.1016/S0960-894X(96)00601-4, PMID 11162439. As to conditions: cited from earlier work.
A further data set has as its system PDGF-Rα. The data set can be described thus: Kinase inhibition assay (radiometric or HTRF). In kind it is biochemical.
The next data set has as its system AMPKα2. Nature of the data set: Kinase inhibition assay (radiometric or HTRF). In kind it is biochemical. As to conditions: 20 µM.
The next data set relates to HepG2 cells. The data set can be described thus: WST-1 assay. In kind it is cell-based. As to conditions: 48 h (or 24 h). Here is the method:
as §1
WST-1 assay (Roche Diagnostics International AG, Rotkreuz, Schweiz) was performed according to manufacturer’s protocol and as described previously. In brief, HepG2 cells were seeded in DMEM high glucose, supplemented with SP (1 mM), penicillin (100 U/mL), streptomycin (100 µg/mL) and 10% FCS in 96-well plates (3∙10^4 cells/well). After 24 h, medium was changed to DMEM high glucose, supplemented with penicillin (100 U/mL), streptomycin (100 µg/mL) and 1% charcoal stripped FCS and cells were incubated with 4 or 16 (final […]
and DMEM/1% DMSO as negative controls. After 48 h (or 24 h), WST reagent (Roche Diagnostics International AG) was added to each well according to manufacturer’s instructions. After 45 min incubation, absorption (450 nm/ reference: 620 nm) was determined with a Tecan Infinite M200 luminometer (Tecan Deutschland GmbH). Each experiment was repeated at least three times in triplicates. […]

For another data set, the system named is T3, RXRα.
T3 construct: expressed in transfected cells; host or cells: HEK293T
The data set can be described thus: Gal4-DBD-RXRα-LBD hybrid reporter gene assay. In kind it is cell-based, human. The text has this: The Gal4-fusion receptor plasmids pFA-CMV-hPPARα-LBD[34], pFA-CMV-hPPARγ-LBD[34], pFA-CMV-hPPARδ-LBD[34], pFA-CMV-hLXRα-LBD[35], pFA-CMV-hLXRβ-LBD[35], pFA-CMV-hRXRα-LBD[36], pFA-CMV-hRXRβ-LBD[36], pFA-CMV-hRXRγ-LBD[36], pFA-CMV-hRARα-LBD[36], pFA-CMV-hRARβ-LBD[36], pFA-CMV-hRARγ-LBD[36], pFA-CMV-hVDR-LBD[36] and pFA-CMV-hCAR-LBD[36] coding for the hinge region and ligand binding domain (LBD) of the canonical isoform of the respective nuclear receptor have been reported previously. pFR-Luc (Stratagene) was used as reporter plasmid and pRL-SV40 (Promega) for normalization of transfection efficiency and cell growth.
HEK293T cells were grown in DMEM high glucose, supplemented with 10% FCS, sodium pyruvate (1 mM), penicillin (100 U/mL) and streptomycin (100 μg/mL) at 37 °C and 5% CO2. The day before transfection, HEK293T cells were seeded in 96-well plates (2.5·10^4 cells/well). Before transfection, medium was changed to Opti-MEM without supplements. Transient transfection was carried out using Lipofectamine LTX reagent (Invitrogen) according to the manufacturer’s protocol with pFR-Luc (Stratagene), pRL-SV40 (Promega) and pFA-CMV-hNR-LBD. […] Luminescence was measured with an Infinite M200 luminometer (Tecan Deutschland GmbH) or a Tecan Spark 10 M luminometer (Tecan). […]

A further data set relates to CaMKK2. Nature of the data set: Kinase inhibition assay (radiometric or HTRF). To be noted: 20 µM. In kind it is biochemical.
[2] abbreviates: full-length reporter gene assay, HeLa cells, mean ± SEM, n ≥ 3.
The mark [3] stands for this setting: full-length reporter gene assay.

The structures appear in SMILES notation. Like-named read-outs stand apart in the source and are kept apart here.

Usually EC50 stands for the concentration giving half of the maximal effect.

`CS(=O)(=O)O.CS(=O)(=O)O.CS(=O)(=O)O.CS(=O)(=O)O.Cc1ccc(NC(=O)c2ccc3ccccc3c2)cc1Nc1nccc(-c2cccnc2)n1.Cc1ccc(NC(=O)c2ccc3ccccc3c2)cc1Nc1nccc(-c2cccnc2)n1.O.O.O` [compound 9]: the Emax at human FXR (read-out: hFXR: max. rel. act.) was 7.1%. In addition, the EC50 on human FXR (setting [2]) amounted to 460 ± 10 nM. Also, the “FXR modulatory potency in words” value at human FXR (setting [3]) is on record as “submicromolar”.
For the compound `Cc1ccc(NC(=O)c2ccc(-c3ccccc3)cc2)cc1Nc1nccc(-c2cccnc2)n1` [compound 14], at human FXR (read-out: hFXR: max. rel. act.), the Emax is 7.1%. Moreover, the EC50 on human FXR (setting [2]) was found to be 130 ± 20 nM.
As for `Cc1ccc(N)cc1Nc1nccc(-c2cccnc2)n1` [compound 17, reference compound], on human FXR (read-out: hFXR: max. rel. act.), the Emax was 9.2%. Also, the half-maximal effective concentration (EC50) on human FXR (setting [2]) was found to be 17800 ± 1100 nM.
For `Cc1ccc(NC(=O)c2ccncc2)cc1Nc1nccc(-c2cccnc2)n1` [compound 10], in that order: 11.7% and 3500 ± 200 nM.
For `CS(=O)(=O)O.CS(=O)(=O)O.CS(=O)(=O)O.CS(=O)(=O)O.Cc1ccc(NC(=O)c2ccccc2)cc1Nc1nccc(-c2cccnc2)n1.Cc1ccc(NC(=O)c2ccccc2)cc1Nc1nccc(-c2cccnc2)n1.O` [compound 8], the Emax at human FXR (read-out: hFXR: max. rel. act.) is 9%. For the same compound, at human FXR (setting [2]), the EC50 is 450 ± 20 nM. Further, the “FXR modulatory potency in words” value on human FXR (setting [3]) is reported as “submicromolar”.
`CCc1ccc(C(=O)Nc2ccc(C)c(Nc3nccc(-c4cccnc4)n3)c2)cc1.CS(=O)(=O)O.CS(=O)(=O)O.O` [compound 12]: the Emax on human FXR (read-out: hFXR: max. rel. act.) was 7.9%. Moreover, the EC50 at human FXR (setting [2]) worked out at 6.4 ± 0.4 nM. Further, the “FXR modulatory potency in words” value on human FXR (setting [3]) is recorded as “single-digit nanomolar activity”.
Consider `Cc1ccc(C(=O)Nc2ccc(C)c(Nc3nccc(-c4cccnc4)n3)c2)cc1` [compound 11], for which the Emax on human FXR (read-out: hFXR: max. rel. act.) was 8.1%. Also, at human FXR (setting [2]), the EC50 is 51 ± 1 nM.
Regarding `Cc1ccc(NC(=O)c2ccc(CN3CCN(C)CC3)cc2)cc1Nc1nccc(-c2cccnc2)n1` [compound 4, imatinib, reference compound], in the data set with c-Kit, the “Inhibition of c-Kit” value is “potent inhibitor”. Besides, in the data set with TAK1, the “Inhibition of TAK1” value is reported as “slight inhibition”. Also, in the data set on TGR5, the “TGR5 modulation (agonistic or antagonistic activity)” value is on record as “no agonistic or antagonistic activity”. Also, the “Inhibition of AMPKα1” value with AMPKα1 is reported as “did not markedly inhibit”. The “mean percent of remaining compound” value is listed as 100 ± 0% in data set [1] (0 min), 86 ± 3% in data set [1] (15 min), 74 ± 1% in data set [1] (30 min) and 61 ± 3% in data set [1] (60 min). Moreover, in the data set on PKA, the “Activity on PKA” value was “inactive”. Also, the “Inhibition of PDGF-Rα” value with PDGF-Rα is given as “potent inhibitor”. In addition, the “Inhibition of AMPKα2” value in the data set with AMPKα2 was “did not markedly inhibit”. Besides, the “WST-1, mean percent of untreated control” value came to 98 ± 9% in the data set on HepG2 cells (HepG2, 0.1 µM); 80 ± 9% with HepG2 cells (HepG2, 1 µM); 78 ± 3% in the data set with HepG2 cells (HepG2, 10 µM); 65 ± 1% in the data set with HepG2 cells (HepG2, 50 µM); 77 ± 7% in the data set with HepG2 cells (HepG2, 4 (10 µM) + 1 (50 µM)). In addition, the “RXR agonistic activity (activation of RXRα-Gal4 chimera receptor)” value in the data set on RXRα is “neither activated”. For the same compound, the “Inhibition of CaMKK2” value in the data set with CaMKK2 is “slight inhibition”.
As to `Cc1ccc(NC(=O)c2ccc(C(C)(C)C)cc2)cc1Nc1nccc(-c2cccnc2)n1` [compound 13], at human FXR (read-out: hFXR: max. rel. act.), the Emax was 8.6%. Further, the EC50 on human FXR (setting [2]) is 580 ± 70 nM.
Regarding `C[C@H](CCC(=O)O)[C@H]1CC[C@H]2[C@@H]3[C@H](O)C[C@@H]4C[C@H](O)CC[C@]4(C)[C@H]3CC[C@]12C` [compound 1, chenodeoxycholic acid, reference compound], the “WST-1, mean percent of untreated control” value in the data set on HepG2 cells (HepG2, 50 µM) is given as 88 ± 5%.
`CC(=O)Nc1ccc(C)c(Nc2nccc(-c3cccnc3)n2)c1.CC(=O)Nc1ccc(C)c(Nc2nccc(-c3cccnc3)n2)c1.CS(=O)(=O)O.CS(=O)(=O)O.CS(=O)(=O)O.CS(=O)(=O)O.O` [compound 7]: the “hFXR: EC50” value on human FXR (setting [2]) was “inactive”.
On to `COc1ccc(C(=O)Nc2ccc(C)c(Nc3nccc(-c4cccnc4)n3)c2)cc1` [compound 15], for which, on human FXR (relative to FXR full agonist 3 at 3 µM, mean ± SEM, n ≥ 3, read-out: hFXR: max. rel. act. (converted)), the Emax was 8.4%. Also, the EC50 on human FXR (setting [2]) stood at 1000 ± 100 nM.
